Measured values from patent publication US20060166360A1, “Compositions, solutions, and methods used for transplantation” (The General Hospital Corporation, priority 2002, published 2006).
Entries after “also recorded” stand apart in the source; their conditions may differ.

How the values were obtained:
[1] = test system: steatotic hepatocytes; experiment: Defatting of steatotic cultured hepatocytes with defatting media; format: cell-based, rat; conditions: for effect on the defatting process (fat reduction): agent added in high insulin containing media; for effect on the defatting process (lipid removal): agent added in low insulin-containing medium
Method: It has previously been shown that collagen-sandwiched adult rat hepatocytes which are seeded and maintained in standard hepatocyte culture medium and then exposed to either rat or human plasma become severely steatotic within 24 hours with a concomitant reduction in liver-specific functions (Matthew et al., Biotechnol. Bioeng. 51: 100-111, 1995; Stefanovich et al., J. Surg. Res. 66: 57-63, 1996).
In the next set of experiments, we induced steatosis in hepatocytes by exposing them to high insulin levels followed by plasma for 2 days, and attempted to defat them using the following conditions: plasma supplemented with amino acids and low insulin levels; culture medium containing high insulin ([…]); culture medium containing low insulin (50 μU/mL) levels. We then measured the fraction of remaining triglycerides after 1 and 2 days of treatment. […] The triglyceride removal kinetic data in Table 2 was used to calculate a defatting rate for each defatting condition. For this purpose, the fraction of initial triglyceride remaining was plotted as a function of time on a semi-log plot, which yielded linear curves (not shown). The slopes of these lines, which correspond to the first order rate of decay or triglyceride clearance from the cells during defatting, are shown in Table 2 for each defatting condition tested. From these values, we can predict the fraction of intracellular lipid remaining after any treatment time using the simple equation: Triglyceride Fraction Remaining=100e^−[RateConstant][TreatmentTime] (equation 1)

[2] = test system: liver I/R injury in steatotic liver transplantation; experiment: Serum ALT after fatty liver transplantation; format: in vivo, rat; conditions: donor GdCl3 pretreatment
Method: (§1) Donor animals were divided into three groups; heat shock preconditioning (HPc) group, sham HPc (Sham) group, and gadolinium chloride (GdCl3) group. In the HPc group, rats were anesthetized and placed in a waterproof bag that was then immersed in a 43° C. water bath to elevate the core body temperature (measured via a rectal digital thermometer) to 42-42.5° C. Animals were maintained at that temperature for 10 min and then removed from the warm bath. Animals then received 10 ml/kg intraperitoneal saline injection and were allowed to recover with free access to food and water. Animals in the Sham and GdCl3 groups underwent the same procedures except that they were immersed in a 37° C. bath (sham HPc). In the GdCl3 group, Kupffer cell deactivation was achieved by two 20 mg/kg GdCl3 (Sigma, St. Louis, Mo.) intravenous injection 48 and 24 hours before donor liver harvesting. In the Sham and HPc groups, sterile nonpyrogenic saline was used as instead of GdCl3 solution. Donor livers were harvested 24 hours after HPc or sham HPc. In some experiments, rats were pretreated with 5 mg/kg i.m. Cyclosporine A (CyA; Sigma) 6 hours before donor liver harvesting.
Isogenic orthotopic liver transplantation was performed as described by Kamada and Calne (Kamada et al., Transplantation 28:47-50, 1979). Donor livers were harvested 3, 6, 24, 48, or 72 hours after HPc. Briefly, the bile duct was cannulated with a short intraluminal polyethylene stent. […] The infrahepatic and suprahepatic vena cava, including part of the diaphragm, were transected. […] For survival studies, the animals were returned to standard housing facilities and monitored for up to one week. […]
(§2) To assess liver injury, alanine aminotransferase (ALT) was measured in serum samples using a commercially available kit (Sigma). TNF-α, IL-10, IL-4, IL-12, and IFN-γ levels in serum and cell culture supernatant were determined by Enzyme-linked immunosorbent assay (ELISA). […]

[3] = test system: recipient rats; experiment: Survival of recipient rats after fatty liver transplantation; format: in vivo, rat; conditions: up to 1 week after transplantation, vs Sham group
Method: as §1, with “In some experiments, rats were pretreated with 5 mg/kg i.m. Cyclosporine A (CyA; Sigma) 6 hours before donor liver harvesting.” left out
(§3) Isogenic orthotopic liver transplantation was performed as described by Kamada and Calne (Kamada et al., Transplantation 28:47-50, 1979). […] For survival studies, the animals were returned to standard housing facilities and monitored for up to one week. […]

[4] = test system: IL-12p70, TNF-α and IL-10; experiment: Serum cytokine levels (ELISA) after fatty liver transplantation; format: in vivo, rat; conditions: donor GdCl3 pretreatment
Method: as §1, with “In the Sham and HPc groups, sterile nonpyrogenic saline was used as instead of GdCl3 solution. Donor livers were harvested 24 hours after HPc or sham HPc. In some experiments, rats were pretreated with 5 mg/kg i.m. Cyclosporine A (CyA; Sigma) 6 hours before donor liver harvesting.” left out
as §3, §2

[5] = test system: liver CD4+ and CD8+ T cells; experiment: Flow cytometry of liver T cells after transplantation; format: in vivo, rat; conditions: for CD3+CD4+ relative number of T cells in the liver / CD3+CD8+ relative number of T cells in the liver: mean ± SD
Method: as §1
Three hours or 24 hours after liver transplantation, transplanted liver were perfused with sterile PBS through the portal vein to wash out all remaining peripheral blood and then meshed with stainless steel mesh. After the coarse pieces were removed by centrifugation at 50 g for 1 min, the cell suspensions were again centrifuged, resuspended in 8 mL of 45% Percoll (Sigma), and layered on 5 mL of 67.5% Percoll. The gradients were centrifuged at 600 g at 20° C. for 20 min. Lymphocytes at the interface were harvested and washed twice with PBS. CD4^+ or CD8^+ T cells were purified by Rat T cell CD4 or CD8 column kit (R&D systems, Minneapolis, […].) from the harvested liver lymphocytes. The purity of sorted cells was more than 95%.
For 3-color analysis, liver lymphocytes were incubated with saturating amounts of phycoerythrin-conjugated anti-rat CD3α mAb (Pharmingen, San Diego, Calif.) and fluorescein isothiocyanate-conjugated anti-rat CD4 mAb (Pharmingen) for 30 min. Cells were analyzed with a FACSCalibur flow cytometer (Becton Dickinson, San Jose, Calif.). We carefully gated cells by forward and side light scattering for the liver lymphocytes. The data were analyzed using CyQuest software (Becton Dickinson).

[6] = test system: transplanted fatty livers; experiment: Histology of transplanted fatty livers; format: in vivo, rat; conditions: 3 hours after transplantation, compared to Sham group livers
Method: as §1, with “In some experiments, rats were pretreated with 5 mg/kg i.m. Cyclosporine A (CyA; Sigma) 6 hours before donor liver harvesting.” left out
as §3

[7] = test system: intrahepatic neutrophil accumulation; experiment: Myeloperoxidase content of liver tissue (neutrophil accumulation) after transplantation; format: in vivo, rat
Method: Donor animals were divided into three groups; heat shock preconditioning (HPc) group, sham HPc (Sham) group, and gadolinium chloride (GdCl3) group. In the HPc group, rats were anesthetized and placed in a waterproof bag that was then immersed in a 43° C. water bath to elevate the core body temperature (measured via a rectal digital thermometer) to 42-42.5° C. Animals were maintained at that temperature for 10 min and then removed from the warm bath. Animals then received 10 ml/kg intraperitoneal saline injection and were allowed to recover with free access to food and water. Animals in the Sham and GdCl3 groups underwent the same procedures except that they were immersed in a 37° C. bath (sham HPc). […]
as §3
The presence of myeloperoxidase (MPO), enzyme specific for neutrophil (and some macrophages), was used as an index of intrahepatic neutrophil accumulation. […] The change in absorbance was measured by spectrophotometry at 450 nm. One unit of MPO activity was defined as the quantity of enzyme degrading 1 μM peroxide per minute at 25° C. per gram of tissue.

[8] = test system: liver CD4+ T cells; experiment: IFN-γ production by liver CD4+ T cells on anti-CD3 mAb-coated plates (ELISA); format: cell-based, rat; conditions: 24 hours after transplantation; donor GdCl3 pretreatment
Method: as §1
Liver lymphocytes were obtained by the same method previously described. […] IFN-γ and IL-4 levels in the culture supernatants were determined by ELISA.

[9] = test system: IFN-γ mRNA; experiment: RT-PCR of IFN-γ mRNA in purified liver T cells after transplantation; format: in vivo, rat; conditions: 24 hours after transplantation; donor GdCl3 pretreatment
Method: as §1
Three hours or 24 hours after liver transplantation, transplanted liver were perfused with sterile PBS through the portal vein to wash out all remaining peripheral blood and then meshed with stainless steel mesh. […]

[10] = test system: HSP72 and HO-1; experiment: Western blot of HSP72 and HO-1 in hepatocytes, CD4+ and CD8+ T cells of donor fatty liver; format: in vivo, rat; conditions: at time of harvesting; GdCl3 20 mg/kg i.v. 48 and 24 hours before harvesting
Method: as §1
Donor rats were sacrificed up to 240 hours after HPc. […] Protein signals were visualized by chemiluminescence (Pierce, Rockford, Ill.) and recorded on a GS282 Scanner (BioRad, Hercules, Calif.).

Compound	effect on the defatting process (fat reduction) [1]	effect on the defatting process (lipid removal) [1]	serum ALT levels ([2]; 3 hours after transplantation, 12 hours cold preservation)	liver injury ([2]; 24 hours after transplantation)	protection against I/R injury by phase ([2]; acute (3 hours) and subacute (24 hours) phase)	recipient survival rate [3]	serum IL-12, TNF-α and IL-10 levels ([4]; 3 hours after transplantation)	serum TNF-α levels ([4]; 24 hours after transplantation)	CD3+CD4+ relative number of T cells in the liver ([5]; 3 hr after transplantation)	CD3+CD8+ relative number of T cells in the liver ([5]; 3 hr after transplantation)	CD3+CD4+ relative number of T cells in the liver ([5]; 24 hr after transplantation)	CD3+CD8+ relative number of T cells in the liver ([5]; 24 hr after transplantation)	numbers of CD3+ CD8+ cells in the liver between groups ([5]; any stage following transplantation)	hemorrhagic injury (histology) [6]	MPO levels of liver tissue ([7]; 3 hours after transplantation)	MPO levels of liver tissue / neutrophil accumulation ([7]; 24 hours after transplantation)	IFN-γ production by liver CD4+ T cells [8]	expression level of IFN-γ mRNA in isolated CD3+ CD4+ cells [9]	expression level of IFN-γ mRNA in isolated CD3+ CD8+ cells [9]	HSP72 and HO-1 expression in hepatocytes, CD4+ and CD8+ T cells [10]
hepatocyte growth factor	Some fat-reducing effects were seen	did not further enhance lipid removal	–	–	–	–	–	–	–	–	–	–	–	–	–	–	–	–	–	–
leptin	Some fat-reducing effects were seen	did not further enhance lipid removal	–	–	–	–	–	–	–	–	–	–	–	–	–	–	–	–	–	–
[Cl][Gd]([Cl])[Cl] [GdCl3, gadolinium chloride]	–	–	significantly lower than that of Sham group	did not suppress liver injury	only protected I/R injury in the acute phase	no significant difference; also recorded: did not improve the recipient survival rate	moderated the initial increase in IL-12, TNF-α, and IL-10 significantly; also recorded: suppressed; also recorded: prevented the serum release of IL-12, TNF-α, and IL-10	not significantly different from that of liver controls	8.4 ± 2.7 ×10^5	4.2 ± 1.2 ×10^5	7.2 ± 2.2 ×10^5	5.6 ± 2.3 ×10^5	no difference	reduced hemorrhagic injury	almost similar with no significant difference	no difference between the Sham group and the GdCl3-treated group; also recorded: did not suppress liver injury or neutrophil accumulation	did not suppress activation of or IFN-γ production	much higher than that from HPc group	remained low in all three groups	neither HSP72 nor HO-1 was detected
